Calls of active or inactive are those of the source. The rule behind the calls is not given here.

Consider 1 compound from ChEMBL document CHEMBL5375972, “Discovery of Novel 2,3-Dihydro-1H-indene-5-sulfonamide NLRP3 Inflammasome Inhibitors Targeting Colon as a Potential Therapy for Colitis” (J Med Chem, 2023).

Holding throughout (format): functional, organism-based
Conditions in all cases: time 9.0 day

Experiment [1] deals with Mus musculus. As to the kind of experiment: Anti-inflammatory activity in DSS-induced ulcerative colitis C57BL/6 mouse model assessed as increase in body weight at 10 mg/kg,ip administrated for 9 days.
The subject of experiment [2] is Mus musculus. As to the kind of experiment: Anti-inflammatory activity in DSS-induced ulcerative colitis C57BL/6 mouse model assessed as reduction in disease activity index (DAI) score at 10 mg/kg,ip administrated for 9 days.
Experiment [3] deals with Mus musculus. As to the kind of experiment: Anti-inflammatory activity in DSS-induced ulcerative colitis C57BL/6 mouse model assessed as increase in colon length at 10 mg/kg,ip administrated for 9 days.
Experiment [4] relates to Mus musculus. As to the kind of experiment: Anti-inflammatory activity in DSS-induced ulcerative colitis C57BL/6 mouse model assessed as reduction in histological colitis severity score at 10 mg/kg,ip administrated for 9 days.

On to `CC(C)(O)c1coc(S(=O)(=O)NC(=O)Nc2c3c(cc4c2CCC4)CCC3)c1`, for which the result with Mus musculus [1], with Mus musculus [2] and with Mus musculus [3] was Active. The result in the experiment on Mus musculus [4] was inactive.
